Laboratory results taken from US7329651B2 (priority 2001, dated 2008).
Read-outs that look alike come from different tables or passages of the source.

Columns and labels:
CB1 cannabinoid receptor = target: T1, CB1 cannabinoid receptor (Rattus norvegicus, UniProt P20272); assay: CB1 receptor binding, [3H] CP-55,940 displacement, rat forebrain membranes
T1 construct: membranes were prepared from rat forebrain membranes; from tissue; host or cells: rat forebrain
Procedure: (§1) The prepared cannabinoid compounds were tested for CB2 receptor binding affinity and for CB1 receptor affinity (to determine selectivity for the CB2 receptor). As used herein, “binding affinity” is represented by the IC50 value which is the concentration of an analog required to occupy the 50% of the total number (Bmax) of the receptors. The lower the IC50 value, the higher the binding affinity. […] The binding affinities (Ki) are expressed in nanomoles (nM).
For the CB1 receptor binding studies, membranes were prepared from rat forebrain membranes according to the procedure of P. R. Dodd et al; A Rapid Method for Preparing Synaptosomes: Comparison with Alternative Procedures, Brain Res., 107-118 (1981). The binding of the novel analogues to the CB1 cannabinoid receptor was assessed as described in W. A. Devane et al; Determination and Characterization of a Cannabinoid Receptor in a Rat Brain, Mol. Pharmacol., 34, 605-613 (1988) and A. Charalambous et al; “5′-azido ^8−THC: A Novel Photoaffinity Label for the Cannabinoid Receptor”, J. Med. Chem., 35, 3076-3079 (1992) with the following changes. The above articles are incorporated by reference herein.
Membranes, previously frozen at −80° C., were thawed on ice. To the stirred suspension was added three volumes of TME (25 mM Tris-HCl buffer, 5 mM MgCl2 and 1 mM EDTA) at a pH 7.4. The suspension was incubated at 40° C. for 30 min. At the end of the incubation, the membranes were pelleted and washed three times with TME.
(§2) The treated membranes were subsequently used in the binding assay described below. Approximately 30 μg of membranes were incubated in silanized 96-well microtiter plate with TME containing 0.1% essentially fatty acid-free bovine serum albumin (BSA), 0.8 nM [^3H] CP-55,940, and various concentrations of test materials at 30° C. for 1 hour. The samples were immediately filtered using a Packard Filtermate 196 and Whatman GF/C filterplates and washed with wash buffer (TME) containing 0.5% BSA. Radioactivity was detected using MicroScint 20 scintillation cocktail added directly to the dried filterplates, and the filterplates were counted using a Packard Instruments Top-Count. Nonspecific binding was assessed using 100 nM CP-55,940. Data collected from three independent experiments performed with duplicate determinations was normalized between 100% and 0% specific binding for [^3H] CP-55,940, determined using buffer and 100 nM CP-55,940. The normalized data was analyzed using a 4-parameter nonlinear logistic equation to yield IC50 values. Data from at least two independent experiments performed in duplicate was used to calculate IC50 values which were converted to Ki values using the using the assumptions of Cheng et al; “Relationship Between the Inhibition Constant (Ki) and the concentration of Inhibitor which causes 50% Inhibition (IC50) of an Enzymatic Reaction”, Biochem. Pharmacol., 22, 3099-3102, (1973), which is incorporated by reference herein.

CB2 receptor = target: T2, CB2 receptor (Mus musculus, UniProt P47936); assay: biochemical; format: binding; conditions: for Selectivity for CB2: ratio of CB1 Ki to CB2 Ki
T2 construct: membranes were prepared from frozen mouse spleen; from tissue; host or cells: mouse spleen
Procedure: as §1, §2
For the CB2 receptor binding studies, membranes were prepared from frozen mouse spleen essentially according to the procedure of P. R. Dodd et al; “A Rapid Method for Preparing Synaptosomes: Comparison with Alternative Procedures”, Brain Res., 226, 107-118 (1981) which is incorporated by reference herein. Silanized centrifuge tubes were used throughout to minimize receptor loss due to adsorption. The CB2 binding assay was conducted in the same manner as the CB1 binding assay. The binding affinities (Ki) were also expressed in nanomoles (nM).

CB2 = CB2 (Homo sapiens, UniProt P34972); assay: Intracellular cyclic AMP levels, comparative protein binding assay (adenylate cyclase inhibition); format: cell-based; conditions: intracellular cAMP
Procedure: Intracellular cyclic AMP (cAMP) levels are measured with a comparative protein binding assay (materials available from Diagnostic Products, Inc. of Carlsbad, Calif.) generally according to the method described in Tao, Q. and M. E. Abood; “Mutation of a highly conserved aspartate residue in the second transmembrane domain of the cannabinoid receptors, CB1 and CB2, disrupts G-protein coupling”, J Pharmacol Exp Ther, 1998, 285(2): pp. 651-658, which is incorporated by reference herein. […] The IC50 value for Compound 2 was 8 nM.

[1] = rat forebrain membranes, 0.8 nM [3H] CP-55,940, read-out: Ki(nM) CB1
[2] = mouse spleen membranes, [3H] CP-55,940, read-out: Ki(nM) CB2

T2 sequence (P47936 whole entry): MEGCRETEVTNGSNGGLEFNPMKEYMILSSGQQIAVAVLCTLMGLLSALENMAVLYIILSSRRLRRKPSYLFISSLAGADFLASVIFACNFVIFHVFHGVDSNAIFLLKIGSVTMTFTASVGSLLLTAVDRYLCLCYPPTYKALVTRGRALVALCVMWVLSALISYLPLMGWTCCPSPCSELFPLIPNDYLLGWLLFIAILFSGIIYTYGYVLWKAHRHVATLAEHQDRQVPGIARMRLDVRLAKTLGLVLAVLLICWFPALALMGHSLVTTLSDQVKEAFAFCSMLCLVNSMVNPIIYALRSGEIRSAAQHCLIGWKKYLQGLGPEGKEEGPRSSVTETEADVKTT
T1 sequence (P20272 whole entry): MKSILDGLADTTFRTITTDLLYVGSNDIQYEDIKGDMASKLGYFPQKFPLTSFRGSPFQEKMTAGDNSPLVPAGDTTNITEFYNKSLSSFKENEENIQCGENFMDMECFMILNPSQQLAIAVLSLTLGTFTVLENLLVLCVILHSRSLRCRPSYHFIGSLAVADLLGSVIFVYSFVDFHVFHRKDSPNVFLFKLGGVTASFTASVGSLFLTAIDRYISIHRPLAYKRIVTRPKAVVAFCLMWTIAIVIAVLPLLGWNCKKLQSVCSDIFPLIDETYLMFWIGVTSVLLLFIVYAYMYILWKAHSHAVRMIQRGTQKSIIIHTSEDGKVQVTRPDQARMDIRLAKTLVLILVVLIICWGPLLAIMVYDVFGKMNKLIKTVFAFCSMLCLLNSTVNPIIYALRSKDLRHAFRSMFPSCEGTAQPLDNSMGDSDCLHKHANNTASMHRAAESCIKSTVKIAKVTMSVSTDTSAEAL
Chain of CB2 (P34972 whole entry, species assumed, the tested form may be a part): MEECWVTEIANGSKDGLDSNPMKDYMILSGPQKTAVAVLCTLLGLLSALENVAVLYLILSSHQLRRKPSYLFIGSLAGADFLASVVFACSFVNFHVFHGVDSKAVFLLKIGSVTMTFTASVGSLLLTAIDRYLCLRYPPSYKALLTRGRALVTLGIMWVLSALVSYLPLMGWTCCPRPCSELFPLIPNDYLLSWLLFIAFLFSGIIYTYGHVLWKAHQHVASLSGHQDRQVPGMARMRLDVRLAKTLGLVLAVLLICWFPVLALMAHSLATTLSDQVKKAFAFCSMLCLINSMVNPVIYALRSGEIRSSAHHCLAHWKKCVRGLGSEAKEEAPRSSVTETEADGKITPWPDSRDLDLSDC

CCOC(=O)C1=NN(C(=O)c2ccccc2I)C(C(=O)OCC)=NN1C(=O)c1ccccc1I
melting point: 186 to 187 °C

CCOC(=O)c1nnc(C(=O)OCC)c2c1[nH]c1ccccc12
melting point: 151 to 152 °C

COC(=O)C1=NN(c2ccccc2)C(C(=O)OC)=NN1c1ccccc1 [compound 1, Dimethyl 1,4-diphenyl-1,4-dihydro-1,2,4,5-tetrazine-3,6-dicarboxylate]
Ki (CB1 cannabinoid receptor; [1]): 31000 nM | melting point: 171 to 172 °C | Ki (CB2 receptor; [2]): 381 nM | Selectivity for CB2 (CB2 receptor): 81

CCOC(=O)C1=NN(c2ccccc2)C(C(=O)OCC)=NN1c1ccccc1 [compound 2]
effect on formation of cyclic AMP (CB2; adenylate cyclase): reduce formation of cyclic AMP by inhibiting adenylate cyclase | IC50 (CB2; read-out: IC50 value, reduction of cyclic AMP formation): 0.008 µM | Ki (CB1 cannabinoid receptor; [1]): 1670 nM | Ki (CB2 receptor; [2]): 19 nM | Selectivity for CB2 (CB2 receptor): 88

CCCOC(=O)C1=NN(c2ccccc2)C(C(=O)OCCC)=NN1c1ccccc1 [compound 3, Dipropyl-1,4-diphenyl-1,4-dihydro-1,2,4,5-tetrazine-3,6-dicarboxylate]
Ki (CB1 cannabinoid receptor; [1]): 618 nM | melting point: 82.5 to 83 °C | Ki (CB2 receptor; [2]): 23.3 nM | Selectivity for CB2 (CB2 receptor): 27

CC(=O)C1=NN(c2ccccc2)C(C(C)=O)=NN1c1ccccc1 [compound 4, 1,4-Diphenyl-1,4-dihydro-3,6-diacetyl-1,2,4,5-tetrazine]
Ki (CB1 cannabinoid receptor; [1]): 10000 nM | Ki (CB2 receptor): 10000 nM | Selectivity for CB2 (CB2 receptor): 1

NC(=O)C1=NN(c2ccccc2)C(C(N)=O)=NN1c1ccccc1 [compound 5]
Ki (CB1 cannabinoid receptor; [1]): 10000 nM | Ki (CB2 receptor; [2]): 10000 nM | Selectivity for CB2 (CB2 receptor): 1

CN(C)C(=O)C1=NN(c2ccccc2)C(C(N)=O)=NN1c1ccccc1 [compound 6, N,N-Dimethyl-1,4-diphenyl-1,4-dihydro-1,2,4,5-tetrazine-3,6-dicarboxylic di-amide]
melting point: 243 to 243.5 °C

CNC(=O)C1=NN(c2ccccc2)C(C(=O)NC)=NN1c1ccccc1 [compound 6]
Ki (CB1 cannabinoid receptor; [1]): 66000 nM | Selectivity for CB2 (CB2 receptor): 1

CCN(CC)C(=O)C1=NN(c2ccccc2)C(C(N)=O)=NN1c1ccccc1 [compound 7, N,N-Diethyl-1,4-diphenyl-1,4-dihydro-1,2,4,5-tetrazine-3,6-dicarboxylic di-amide]
melting point: 239 to 240 °C

CCNC(=O)C1=NN(c2ccccc2)C(C(=O)NCC)=NN1c1ccccc1 [compound 7]
Ki (CB1 cannabinoid receptor; [1]): 100000 nM | Selectivity for CB2 (CB2 receptor): 1

O=C(C1=NN(c2ccccc2)C(C(=O)N2CCCCC2)=NN1c1ccccc1)N1CCCCC1 [compound 9]
Ki (CB1 cannabinoid receptor; [1]): 9990 nM | Ki (CB2 receptor; [2]): 221 nM | Selectivity for CB2 (CB2 receptor): 42

CC(CO)NC(=O)C1=NN(c2ccccc2)C(C(=O)NC(C)CO)=NN1c1ccccc1 (stereo not shown) [compound 10]
Ki (CB1 cannabinoid receptor; [1]): 100000 nM | melting point: 262 to 263 °C | Selectivity for CB2 (CB2 receptor): 1

CC1C(NC(=O)C2=NN(c3ccccc3)C(C(=O)NC3CC4CC(C3C)C4(C)C)=NN2c2ccccc2)CC2CC1C2(C)C (stereo not shown) [compound 11]
Ki (CB1 cannabinoid receptor): 100000 nM | Selectivity for CB2 (CB2 receptor): 1

CCOC(=O)C1=NN(c2ccccc2)C(C(C)=O)=NN1c1ccccc1 [compound 12, 1,4-Diphenyl-1,4-dihydro-1,2,4,5-tetrazine-3-aceto-6-carboxylic acid ethyl ester]
Ki (CB1 cannabinoid receptor; [1]): 7700 nM | Ki (CB2 receptor; [2]): 327 nM | Selectivity for CB2 (CB2 receptor): 24

CCOC(=O)C1=NN(c2ccccc2)C(C(=O)N2CCCCC2)=NN1c1ccccc1 [compound 13, 1,4-Diphenyl-1,4-dihydro-1,2,4,5-tetrazine-3-carboxylic N-isopinocampheyl amide-6-carboxylic ethyl ester]
Ki (CB1 cannabinoid receptor; [1]): 5040 nM | Ki (CB2 receptor; [2]): 255 nM | Selectivity for CB2 (CB2 receptor): 20

CCOC(=O)C1=NN(c2ccccc2)C(C(=O)NC2CC3CC(C2C)C3(C)C)=NN1c1ccccc1 (stereo not shown) [compound 14, 1,4-Diphenyl-1,4-dihydro-1,2,4,5-tetrazine-3-carboxylic N-piperidinyl amide-6-carboxylic acid ethyl ester]
Ki (CB1 cannabinoid receptor): 2050 nM | Ki (CB2 receptor; [2]): 805 nM | Selectivity for CB2 (CB2 receptor): 2.6

CCOC(=O)C1=NN(c2ccc([N+](=O)[O-])cc2)C(C(=O)OCC)=NN1c1ccc([N+](=O)[O-])cc1 [compound 15]
Ki (CB1 cannabinoid receptor): 100000 nM

CCOC(=O)C1=NN(c2ccc(Cl)cc2)C(C(=O)OCC)=NN1c1ccc(Cl)cc1 [compound 16, 1,4-Di-(4-chlorophenyl)-1,4-dihydro-1,2,4,5-tetrazine-3,6-dicarboxylic acid diethyl ester]
Ki (CB1 cannabinoid receptor; [1]): 208 nM | Ki (CB2 receptor; [2]): 48 nM | Selectivity for CB2 (CB2 receptor): 4.3

CCOC(=O)C1=NN(c2ccc(Br)cc2)C(C(=O)OCC)=NN1c1ccc(Br)cc1 [compound 17]
Ki (CB1 cannabinoid receptor; [1]): 350 nM | Ki (CB2 receptor; [2]): 200 nM

CCOC(=O)C1=NN(c2ccc(OC)cc2)C(C(=O)OCC)=NN1c1ccc(OC)cc1 [compound 18]
Ki (CB1 cannabinoid receptor; [1]): 4590 nM | Ki (CB2 receptor; [2]): 72 nM | Selectivity for CB2 (CB2 receptor): 64

CCOC(=O)C1=NN(c2ccc(Cl)cc2Cl)C(C(=O)OCC)=NN1c1ccc(Cl)cc1Cl [compound 19]
Ki (CB1 cannabinoid receptor; [1]): 10000 nM | Ki (CB2 receptor; [2]): 10000 nM | Selectivity for CB2 (CB2 receptor): 1

CCOC(=O)C1=NN(c2cccc3ccccc23)C(C(=O)OCC)=NN1c1cccc2ccccc12 [compound 20, 1,4-Di-(α-naphthalene)-1,4-dihydro-1,2,4,5-tetrazine-3,6-dicarboxylic acid diethyl ester]
Ki (CB1 cannabinoid receptor; [1]): 1e+06 nM | melting point: 129 to 130 °C | Ki (CB2 receptor; [2]): 1910 nM | Selectivity for CB2 (CB2 receptor): 524

CCOC(=O)C1=NN(C(=O)c2ccccc2)C(C(=O)OCC)=NN1C(=O)c1ccccc1 [compound 21, 1,4-Dibenzoyl-1,4-dihydro-1,2,4,5-tetrazine-3,6-dicarboxylic acid diethyl ester]
Ki (CB1 cannabinoid receptor; [1]): 100000 nM | melting point: 133.5 to 134 °C | Selectivity for CB2 (CB2 receptor): 1

CCOC(=O)C1=NN(c2ccc(Cl)cc2)C(C(=O)OCC)=NN1c1ccccc1 [compound 22, 1-(4-chlorophenyl)-4-phenyl-1,4-dihydro-1,2,4,5-tetrazine-3,6-dicarboxylic acid diethyl ester]
Ki (CB1 cannabinoid receptor; [1]): 1500 nM | Ki (CB2 receptor; [2]): 43 nM | Selectivity for CB2 (CB2 receptor): 34

CCOC(=O)C1=NN(c2ccc(Br)cc2)C(C(=O)OCC)=NN1c1ccc(Cl)cc1 [compound 23]
Ki (CB1 cannabinoid receptor; [1]): 542 nM | melting point: 130 to 131 °C | Ki (CB2 receptor; [2]): 30 nM | Selectivity for CB2 (CB2 receptor): 18

CCOC(=O)C1=NN(c2cccc3ccccc23)C(C(=O)OCC)=NN1c1ccccc1 [compound 24, 1-Phenyl-4-α-naphthalenyl-1,4-dihydro-1,2,4,5-tetrazine-3,6-dicarboxylic acid diethyl ester]
Ki (CB1 cannabinoid receptor; [1]): 7360 nM | Ki (CB2 receptor; [2]): 182 nM | Selectivity for CB2 (CB2 receptor): 40

N,N-Dibutyl-1,4-diphenyl-1,4-dihydro-1,2,4,5-tetrazine-3,6-dicarboxylic di-amide [compound 8]
Ki (CB1 cannabinoid receptor; [1]): 16000 nM | Ki (CB2 receptor; [2]): 692 nM | Selectivity for CB2 (CB2 receptor): 23
